Assay results: ChEMBL document CHEMBL3243954 (J Med Chem, 1979)

Legend:
Brain [1] = assay: Drug uptake albino mouse brain at 15 mg equivalent of oxazepam/kg, iv after 90 mins measured per gm of tissue by thin-layer chromatography; assay type: ADME, organism-based; conditions: in vivo, 1.5 h
Brain [2] = assay: Drug uptake albino mouse brain at 15 mg equivalent of oxazepam/kg, iv after 12 mins measured per gm of tissue by thin-layer chromatography; assay type: ADME, organism-based; conditions: in vivo, 0.2 h
Brain [3] = assay: Drug uptake albino mouse brain at 15 mg equivalent of oxazepam/kg, iv after 1 mins measured per gm of tissue by thin-layer chromatography; assay type: ADME, organism-based; conditions: in vivo
Brain [4] = assay: Drug uptake albino mouse brain at 15 mg equivalent of oxazepam/kg, iv after 20 mins measured per gm of tissue by thin-layer chromatography; assay type: ADME, organism-based; conditions: in vivo
[5] = Retardation factor, Rm of the compound by thin-layer chromatography; assay type: physicochemical
Brain [6] = assay: Drug uptake albino mouse brain at 15 mg equivalent of oxazepam/kg, iv after 180 mins measured per gm of tissue by thin-layer chromatography; assay type: ADME, organism-based; conditions: in vivo, 3 h
Brain [7] = assay: Drug uptake albino mouse brain at 15 mg equivalent of oxazepam/kg, iv after 3 mins measured per gm of tissue by thin-layer chromatography; assay type: ADME, organism-based; conditions: in vivo, 0.05 h
Brain [8] = assay: Drug uptake albino mouse brain at 15 mg equivalent of oxazepam/kg, iv after 40 mins measured per gm of tissue by thin-layer chromatography; assay type: ADME, organism-based; conditions: in vivo
Brain [9] = assay: Drug uptake albino mouse brain at 5 mg equivalent of oxazepam/kg, iv after 5 mins measured per gm of tissue by thin-layer chromatography; assay type: ADME, organism-based; conditions: in vivo
Brain [10] = assay: Drug uptake albino mouse brain at 5 mg equivalent of oxazepam/kg, iv after 60 mins measured per gm of tissue by thin-layer chromatography; assay type: ADME, organism-based; conditions: in vivo, 1 h
Brain [11] = assay: Drug uptake albino mouse brain at 5 mg equivalent of oxazepam/kg, iv after 20 mins measured per gm of tissue by thin-layer chromatography; assay type: ADME, organism-based; conditions: in vivo
Brain [12] = assay: Drug uptake albino mouse brain at 5 mg equivalent of oxazepam/kg, iv after 240 mins measured per gm of tissue by thin-layer chromatography; assay type: ADME, organism-based; conditions: in vivo, 4 h
Brain [13] = assay: Drug uptake albino mouse brain at 5 mg equivalent of oxazepam/kg, iv after 40 mins measured per gm of tissue by thin-layer chromatography; assay type: ADME, organism-based; conditions: in vivo
Brain [14] = assay: Drug uptake albino mouse brain at 5 mg equivalent of oxazepam/kg, iv after 120 mins measured per gm of tissue by thin-layer chromatography; assay type: ADME, organism-based; conditions: in vivo, 2 h
Brain [15] = assay: Drug uptake albino mouse brain at 5 mg equivalent of oxazepam/kg, iv after 2 mins measured per gm of tissue by thin-layer chromatography; assay type: ADME, organism-based; conditions: in vivo
Brain [16] = assay: Drug uptake albino mouse brain at 5 mg equivalent of oxazepam/kg, iv after 10 mins measured per gm of tissue by thin-layer chromatography; assay type: ADME, organism-based; conditions: in vivo
Brain [17] = assay: Drug uptake albino mouse brain at 5 mg equivalent of oxazepam/kg, iv after 1 min measured per gm of tissue by thin-layer chromatography; assay type: ADME, organism-based; conditions: in vivo
Brain [18] = assay: Drug uptake albino mouse brain at 5 mg equivalent of oxazepam/kg, iv after 6 mins measured per gm of tissue by thin-layer chromatography; assay type: ADME, organism-based; conditions: in vivo, 0.1 h
Brain [19] = assay: Drug uptake albino mouse brain at 5 mg equivalent of oxazepam/kg, iv after 30 mins measured per gm of tissue by thin-layer chromatography; assay type: ADME, organism-based; conditions: in vivo, 0.5 h

## CCCC(=O)OC1N=C(c2ccccc2)c2cc(Cl)ccc2N[14C]1=O (configuration not stated)
Brain [1]
  Drug uptake: 38.2 nmol
Brain [2]
  Drug uptake: 19 nmol
Brain [3]
  Drug uptake: 16.6 nmol
Brain [4]
  Drug uptake: 25.9 nmol
[5]
  Rm: 0.17
Brain [6]
  Drug uptake: 22.6 nmol
Brain [7]
  Drug uptake: 17.3 nmol
Brain [8]
  Drug uptake: 32 nmol

## CC(C)C(=O)OC1N=C(c2ccccc2)c2cc(Cl)ccc2N[14C]1=O (configuration not stated)
Brain [9]
  Drug uptake: 5.7 nmol
Brain [10]
  Drug uptake: 10.8 nmol
Brain [11]
  Drug uptake: 9.3 nmol
Brain [12]
  Drug uptake: 3.8 nmol
Brain [13]
  Drug uptake: 11.6 nmol
Brain [14]
  Drug uptake: 5.9 nmol
Brain [15]
  Drug uptake: 3.1 nmol
[5]
  Rm: 0.12
Brain [16]
  Drug uptake: 8.9 nmol

## COC(=O)CCC(=O)OC1N=C(c2ccccc2)c2cc(Cl)ccc2N[14C]1=O (configuration not stated)
Brain [17]
  Drug uptake: 0.8 nmol
Brain [10]
  Drug uptake: 9.8 nmol
[5]
  Rm: -0.03
Brain [18]
  Drug uptake: 3.8 nmol
Brain [19]
  Drug uptake: 10.8 nmol
